Measured values: ChEMBL document CHEMBL4229480, “Terpenoids with vasorelaxant effects from the Chinese liverwort Scapania carinthiaca” (Bioorg Med Chem, 2018)
Counter-ions that a name gives are not always drawn. Activity calls are given as the source filed them. The calls are words filed in the database; no cut-off is given here.

How the values were obtained:
[1] = system: MCF7; assay: Cytotoxicity against human MCF7 cells after 24 hrs by MTT assay; assay type: functional, cell-based; settings: MCF7, 24 h
[2] = system: A549; assay: Cytotoxicity against human A549 cells after 24 hrs by MTT assay; assay type: functional, cell-based; settings: A549, 24 h
[3] = system: PC-3; assay: Cytotoxicity against human PC3 cells after 24 hrs by MTT assay; assay type: functional, cell-based; settings: PC-3, 24 h
[4] = biological target: Voltage-gated L-type calcium channel (Rattus norvegicus, UniProt P22002+Q02485+P27732); assay: Inhibition of voltage-dependent L-type calcium channel in Wistar rat 3rd-order mesenteric artery assessed as reduction in norepinephrine-induced vessel contraction by myographic method; settings: for inhibition (INH): rat
[5] = biological target: T1, L-type calcium channel (Mus musculus, UniProt Q01815+Q02789+Q99246+Q9JIS7); assay: Inhibition of voltage-dependent L-type calcium channel in mouse MOVAS cells assessed as reduction in KCl/extracellular Ca2+-induced increase in intracellular calcium level pretreated for 10 mins followed by KCl addition by Fluo-3/AM dye based flow cytometry; assay type: cell-based
[6] = biological target: T1, L-type calcium channel; assay: Inhibition of voltage-dependent L-type calcium channel in mouse MOVAS cells assessed as reduction in KCl/extracellular Ca2+-induced increase in intracellular calcium level at 0.1 to 0.5 uM pretreated for 10 mins followed by KCl addition by Fluo-3/AM dye based laser scanning microscopic method; assay type: cell-based
[7] = species on record: Mus musculus; assay: Vasorelaxant activity in mouse MOVAS1 cells assessed as reduction in KCl-induced increase in intracellular calcium level at 0.1 to 0.5 uM pretreated for 10 mins followed by KCl addition by Fluo-3/AM dye based flow cytometry; assay type: functional, cell-based
[8] = species on record: Mus musculus; assay: Vasorelaxant activity in mouse MOVAS1 cells assessed as reduction in KCl-induced increase in intracellular calcium level at 0.1 to 0.5 uM pretreated for 10 mins followed by KCl addition by Fluo-3/AM dye based laser scanning microscopic method; assay type: functional, cell-based
[9] = system: Artery; assay: Vasorelaxant activity in Wistar rat endothelium-denuded 3rd-order mesenteric artery assessed as reduction in norepinephrine-induced vessel contraction by myographic method; assay type: functional, tissue-based

| EC50 [4] | inhibition (INH) [4] | inhibition (INH) [5] | inhibition (INH) [6] | EC50 ([9]; Rattus norvegicus, Wistar, Artery) | SMILES | IC50 [1] | IC50 [2] | IC50 [3] | Activity [7] | Activity [8] | %max [9] |
| --- | --- | --- | --- | --- | --- | --- | --- | --- | --- | --- | --- |
|  |  |  |  |  | CC1(C)[C@@H]2[C@@H]3[C@H](CC[C@@]3(C)O)C(=O)CC[C@@H]21 | > 40 µM | > 40 µM | > 40 µM |  |  |  |
|  |  |  |  |  | C=C1C(=O)[C@@]23C[C@@H]1CC[C@@H]2[C@@]1(C)CCCC(C)(C)[C@@H]1COC3=O | 6.6 µM | 2.3 µM | 11.5 µM |  |  |  |
| 7.3 µM | Dose-dependent effect |  |  |  | C[C@H]1CC[C@@]2(C)C(C(=O)O)=CCC[C@H]2[C@]1(C)CCC1=CCOC1=O | > 40 µM | > 40 µM | > 40 µM |  |  |  |
|  |  |  |  |  | CC1(C)[C@@H]2[C@H]3[C@H](CC[C@@]3(C)O)[C@](O)(CO)CC[C@@H]21 | > 40 µM | > 40 µM | > 40 µM |  |  |  |
|  |  |  |  |  | CCOC1C=C(CC[C@]2(C)[C@@H](C)CC[C@@]3(C)C(C(=O)O)=CCC[C@@H]23)C(=O)O1 (stereo partly specified) | > 40 µM | > 40 µM | > 40 µM |  |  |  |
|  |  |  |  |  | COc1cccc2c1C(=O)c1c(O)c3c(c(O)c1C2=O)C[C@@](O)(C(=O)CO)C[C@@H]3O[C@H]1C[C@H](N)[C@H](O)[C@H](C)O1 [DOXORUBICIN HYDROCHLORIDE] | 0.4 µM | 0.1 µM | 0.8 µM |  |  |  |
| 14 µM | Dose-dependent effect |  |  |  | C=C1CC[C@H](C)[C@@](C)(CCC2=CCOC2=O)C/C=C\C=C/1C(=O)O | > 40 µM | > 40 µM | > 40 µM |  |  |  |
| 4.1 µM | Dose-dependent effect |  |  |  | C=C1CC[C@H](C)[C@@](C)(CCC2=CC(O)OC2=O)C/C=C\C=C/1C(=O)O (stereo partly specified) | > 40 µM | > 40 µM | > 40 µM |  |  |  |
| 12 µM | Dose-dependent effect | Dose-dependent effect | Active | 37 µM | C=C1CC[C@H](C)[C@@](C)(CCC2=CC(OCC)OC2=O)C/C=C\C=C/1C(=O)O (stereo partly specified) | > 40 µM | > 40 µM | > 40 µM | inactive | inactive | 20% |
|  |  |  |  |  | C=C(C)[C@H]1C[C@H]2C(=C)CCC[C@]2(C)C[C@@H]1O | > 40 µM | > 40 µM | > 40 µM |  |  |  |
| 14 µM | Dose-dependent effect |  |  |  | CCOC1C=C(CC[C@]2(C)[C@@H](C)CC[C@@]3(C)C(C(=O)O)=CC=C[C@@H]23)C(=O)O1 (stereo partly specified) | > 40 µM | > 40 µM | > 40 µM |  |  |  |
|  |  |  |  |  | CC(C)=CC(=O)C[C@@]1(C)[C@@H]2[C@H]3[C@@H](C)CC[C@]3(O)[C@@H](C)CC[C@@H]21 | 15.1 µM | 20.8 µM | 13.1 µM |  |  |  |
| 22 µM | Dose-dependent effect |  |  |  | C=C1CC[C@H](C)[C@@](C)(CCC2=CC(OC)OC2=O)C/C=C\C=C/1C(=O)O (stereo partly specified) | > 40 µM | > 40 µM | > 40 µM |  |  |  |
|  |  |  |  |  | C=C1C(=O)O[C@H]2C[C@]3(C)CC[C@H](O)C(C)=C3C[C@@H]12 | > 40 µM | > 40 µM | > 40 µM |  |  |  |
|  |  |  |  |  | CC1(C)[C@@H]2[C@@H]3[C@H](CC[C@@]3(C)O)[C@@](C)(O)CC[C@@H]21 | > 40 µM | > 40 µM | > 40 µM |  |  |  |
|  |  |  |  |  | C=C1C(=O)O[C@H]2C[C@]3(C)CCC=C(C)[C@H]3C[C@@H]12 | > 40 µM | > 40 µM | > 40 µM |  |  |  |
